From patent US7910575B2, “Prophylactic or therapeutic agents for allergic ophthalmic diseases or allergic nasal diseases, comprising tricyclic triazolobenzazepine derivative” (Meiji Seika Kaisha, Ltd., priority 2006, dated 2011)
Several values for one entry are separate records, joined by “and”; a condition that tells them apart may be missing. Identical values can stand only once. Counter-ions that a name gives are not always drawn. Marks after values point to notes of the source that are not given here.

What was measured:
allergic rhinitis [1] = assay: Therapeutic effect on allergic rhinitis (nasal drops one hr after induction); format: in vivo, rat; conditions: for Dye leakage amount increase Inhibition ratio: nasal drops, one hr after administration of the antigen
Description: In the same manner as in Test Example 4-1, the allergic reaction was induced, and the vascular permeability in the late phase of the allergic rhinitis was measured. In this case, however, for the evaluation of the therapeutic effect, compound A, Amlexanox, and Ketotifen were administered one hr after the induction of the allergic reaction. Since greenie was leaked, the dose was doubled (10 μL) so that the dispersion of the medicament within the nasal cavities is not inhibited, and the concentration of the medicament was regulated with physiological saline to the half of the concentration in the experiment on prophylactic effect to render the dose per individual identical.
The medicament was administered one hr after the administration of the antigen.

allergic rhinitis [2] = assay: Prophylactic effect on allergic rhinitis (nasal drops immediately before induction); format: in vivo, rat; conditions: for Increase in dye leakage amount Inhibition ratio: immediately before antigen administration
Description: Male Sprague Dawley rats (n=6) were prepared. Bordetella pertussis (4×10^10) and 1 mg of dinitrophenylated ovalbumin (hereinafter referred to as “DNP-OA”) were subcutaneously administered into the footpad of the rats. […] After six hr from the antigen administration, Evans Blue (a dye) (50 mg/kg) was intravenously administered.
After nine hr from the induction of the allergic reaction, the nasal septal mucosa of the rats was harvested, and the weight of the tissue was measured. The tissue of the nasal septal mucosa was lysed with 1 N KOH, and the leakage amount of the dye was determined as an index of vascular permeability in the late phase of the allergic rhinitis.
In this case, physiological saline was administered instead of the antigen.
In the table, the inhibition ratio was calculated by the following equation. Inhibition(%)=100×{(B−A)−(C−A)}÷(B−A)
wherein A represents a negative control group (a nonsensitized group); B represents a control group; and C represents a medicament administered group.

allergic conjunctivitis [3] = assay: Therapeutic effect on allergic conjunctivitis (instillation three hr after induction); format: in vivo, rat; conditions: for Tissue weight increase: 5 μL/eye three hr after induction of the allergic reaction; for therapeutic effect on allergic conjunctivitis (in words): instillation three hr after induction
Description: Compound A, Betamethasone, control group, and negative control group were administered at the same concentration as in Test Example 1-1, and the concentration of Betamethasone was as shown in Table 3. The test was carried out in the same manner as in Test Example 1-1, except that, three hr after the induction of the allergic reaction, for compound A, Betamethasone, control group, and negative control group were administered, the test solution was administered at a dose of 5 μL/eye to the right eye.

rabbit eye (conjunctiva) = assay: Severe eye irritation test using rabbits; format: in vivo; conditions: instillation six times per day at 30 min intervals for two days
allergic conjunctivitis [4] = assay: Prophylactic effect on allergic conjunctivitis (instillation before induction, late phase); format: in vivo, rat; conditions: for Inhibition ratio Increase in tissue weight: Test Example 1-2, medicament concentration 0.1%, instillation before induction; for Inhibition ratio (%) Increase in tissue weight: 5 μL/eye 15 min before induction; for Inhibition ratio (%) Increase in dye leakage amount: 15 min before induction, Evans Blue
Description: Male SD rats were prepared. Bordetella pertussis (4×10^10) and 1 mg of dinitrophenylated ovalbumin (hereinafter often abbreviated to “DNP-OA”) were subcutaneously administered into the footpad of the rats. After 8 to 10 days from the administration, a 3% DNP-OA solution was administered to the right eye of the rats to induce an allergic reaction. In some experiments, in order to confirm dye leakage and location of edema, a dye was injected, and, in the anatomy, the coincidence of dye leakage with the location of edema was confirmed. […] After 9 hr from the induction of the allergic reaction, the eyeballs of the rats were harvested. Further, lenses, hydatoids, and the contents of the vitreous body were removed from the eyeballs, and the weight of the tissues was measured. Furthermore, the dye leakage amount in the harvested eye tissue was measured. […] The absorbance (630 nm) of Evans Blue in the supernatant was measured with Multiskan JX (manufactured by Labsystem Ltd.). The amount of the dye was regarded as a dye leakage amount. […] For the control group, 0.15 M sodium hydrogencarbonate adjusted to pH 7.2 was administered. For a negative control group (a nonsensitization group), a 3% DNP-OA solution was administered to the right eye of the nonsensitized rats, and the solvent was used into the same manner as in the control group. The medicament or the solvent was administered to the right eye (5 μL/eye) 15 min before the induction of the allergic reaction. Compound A was administered at concentrations of 0.01%, 0.1%, and 1% for studies of dose response. In the table, the inhibition ratio was calculated by the following equation.

[5] = Concentration of compound A in the eye tissue after instillation; format: in vivo, rabbit
Description: A test solution (0.1% or 1%) of compound A in an isotonic borate buffer solution adjusted to pH 7.4 and a test solution (0.1%) of compound B in an isotonic borate buffer solution were provided, and 50 μL of each test solution was administered as ocular instillation to male rabbits.
The concentration of compound A in the eye tissue after instillation was measured as follows. At the outset, the tissue was removed from the test animals and was cryopreserved. Purified water (0.1 mL) was added to a sufficient quantity of the cryopreserved tissue and the like followed by homogenization. Thereafter, 0.5 mL of 0.1% phosphoric acid, 0.05 mL of an internal standard solution (a predetermined internal standard substance ([…]) described in WO 95/18130), 0.05 mL of acetonitrile, and 0.05 mL of purified water were added thereto. An extraction solvent (25% chloroform/diethyl ether) (8 mL) was added, and the mixture was shaken and centrifuged. Thereafter, 7 mL of the organic layer was evaporated to dryness under the negative pressure, and the residue was dissolved in 0.3 mL of a mobile phase to give an analyte. A liquid prepared by mixing and dissolving 0.55 g of tetraoxyl ammonium bromide into 450 mL of acetonitrile, 450 mL of 10 mM phosphate buffer solution, and 100 mL of methanol was used as the mobile phase. The concentration of compound A was measured by injecting 0.025 mL of the analyte into high-performance liquid chromatography (HPLC) (measurement conditions: fluorescence excitation 270 nm, emission 466 nm).
The concentration of only compound A in the eye tissue was measured because compound B is a prodrug of compound A.

[6] = system: epithelial cells of cornea in human eyes; assay: Toxicity against epithelial cells of cornea, 24-hr cell survival rate; format: cell-based
From the text: Specifically, toxicity against epithelial cells of cornea in human eyes was studied.

allergic conjunctivitis [7] = assay: Prophylactic effect on allergic conjunctivitis (instillation before induction, late phase); format: in vivo, rat
[8] = Test Example 4-2, nasal drops at concentrations of Table 9
[9] = medicament concentration 0.1%, 0.5 μg/rat, 9 hr after induction
[10] = medicament concentration 1%, 5 μg/rat, 9 hr after induction

CC(C)c1ccc2oc3nc(N)c(C(=O)O)cc3c(=O)c2c1 [Amlexanox]
Dye leakage amount increase Inhibition ratio (allergic rhinitis [1]; 0.125%, 25 μg/rat): 25.0%
prophylactic effect on allergic rhinitis (in words) (allergic rhinitis [2]; [8]): had prophylactic effect on allergic rhinitis
Increase in dye leakage amount Inhibition ratio (allergic rhinitis [2]; Test Example 4-2, nasal drops, 0.25%, 25 μg/rat): 81.1% **

C[C@H]1C[C@H]2[C@@H]3CCC4=CC(=O)C=C[C@]4(C)[C@@]3(F)[C@@H](O)C[C@]2(C)[C@@]1(O)C(=O)COP(=O)([O-])[O-].[Na+].[Na+] [Betamethazone, betamethazone sodium phosphate, reference compound]
Tissue weight increase (allergic conjunctivitis [3]; 0.1%): 74.8% **
therapeutic effect on allergic conjunctivitis (in words) (allergic conjunctivitis [3]): potent therapeutic effect

COc1cc2[nH]c(=O)c3nn[nH]c3c(=O)c2cc1OC [Compound A, 7,8-Dimethoxy-4(5H),10-dioxo-1H-1,2,3-triazolo[4,5-c][1]benzazepine]
therapeutic effect on allergic rhinitis (in words) (allergic rhinitis [1]; nasal drops one hr after antigen): exhibited therapeutic effect on the allergic rhinitis
Dye leakage amount increase Inhibition ratio (allergic rhinitis [1]; 0.05%, 10 μg/rat): 93.8% **
eye irritation (rabbit eye (conjunctiva); 0.5%): irritation was not observed at all
eye irritation (rabbit eye (conjunctiva); 3%): only slight reddening of the conjunctiva was observed
Inhibition ratio Increase in tissue weight (allergic conjunctivitis [4]): 99.1% **
Inhibition ratio (%) Increase in tissue weight (allergic conjunctivitis [4]; medicament concentration 0.01%, 0.05 μg/rat, eye harvested 9 hr after induction): 67.0% **
Inhibition ratio (%) Increase in dye leakage amount (allergic conjunctivitis [4]; medicament concentration 0.01%, 0.05 μg/rat, 9 hr after induction): 74.4% **
Inhibition ratio (%) Increase in tissue weight (allergic conjunctivitis [4]; [9]): 89.0% **
Inhibition ratio (%) Increase in dye leakage amount (allergic conjunctivitis [4]; [9]): 83.9% **
Inhibition ratio (%) Increase in tissue weight (allergic conjunctivitis [4]; [10]): 83.7% **
Inhibition ratio (%) Increase in dye leakage amount (allergic conjunctivitis [4]; [10]): 87.6% **
Tissue weight increase (allergic conjunctivitis [3]; 0.01%): 70.3% **
Tissue weight increase (allergic conjunctivitis [3]; 0.1%): 99.9% **
Tissue weight increase (allergic conjunctivitis [3]; 1%): 103.7% **
therapeutic effect on allergic conjunctivitis (in words) (allergic conjunctivitis [3]): potent therapeutic effect
maximum eye tissue concentration ([5]; instillation of a 0.1% liquid): 1.29 μg/g and 4.7 μM
concentration at 0.25 h ([5]; male, eye tissue, topical, 50 μL of 1% solution, 1% test solution, 50 μL instillation, rabbit, 0.25 hr after instillation, average ± standard error): 6090 ± 2200 ng/g
concentration at 1 h ([5]; male, eye tissue, topical, 50 μL of 1% solution, 1% test solution, 50 μL instillation, rabbit, 1 hr after instillation): 1150 ± 830 ng/g
concentration at 2 h ([5]; male, eye tissue, topical, 50 μL of 1% solution, 1% test solution, 50 μL instillation, rabbit, 2 hr after instillation): 1260 ± 940 ng/g
concentration at 4 h ([5]; male, eye tissue, topical, 50 μL of 1% solution, 1% test solution, 50 μL instillation, rabbit, 4 hr after instillation): 1380 ± 540 ng/g
concentration at 8 h ([5]; male, eye tissue, topical, 50 μL of 1% solution, 1% test solution, 50 μL instillation, rabbit, 8 hr after instillation): 660 ± 420 ng/g
concentration at 24 h ([5]; male, eye tissue, topical, 50 μL of 1% solution, 1% test solution, 50 μL instillation, rabbit, 24 hr after instillation): 60 ± 60 ng/g
non-toxic concentration relative to the maximum eye tissue concentration ([6]; 0.3 mM versus 4.7 μM (0.1% liquid instillation)): not less than 60 times
toxicity against epithelial cells of cornea (24-hr cell survival rate) ([6]; concentration range of 100 nM to 0.3 mM): any toxicity was not observed
prophylactic effect on allergic rhinitis (in words) (allergic rhinitis [2]; Test Example 4-1, nasal drops 0.01% to 1%): effective against allergic rhinitis dose-dependently
prophylactic effect on allergic rhinitis (in words) (allergic rhinitis [2]; [8]): had prophylactic effect on allergic rhinitis
Increase in dye leakage amount Inhibition ratio (allergic rhinitis [2]; Test Example 4-2, nasal drops, 0.1%, 10 μg/rat): 95.7% **
Increase in dye leakage amount Inhibition ratio (allergic rhinitis [2]; nasal drops, 0.01%, 1 μg/rat, nasal septal mucosa 9 hr after induction): 52.9% **
Increase in dye leakage amount Inhibition ratio (allergic rhinitis [2]; nasal drops, 0.1%, 10 μg/rat, 9 hr after induction): 111.7% **
Increase in dye leakage amount Inhibition ratio (allergic rhinitis [2]; nasal drops, 1%, 100 μg/rat, 9 hr after induction): 123.1% **

O=C(O)c1cc(=O)c2c(OCC(O)COc3cccc4oc(C(=O)O)cc(=O)c34)cccc2o1 [Cromoglycate, cromoglycate sodium]
Inhibition ratio Increase in tissue weight (allergic conjunctivitis [7]; Test Example 1-2, medicament concentration 2%): 14.7%
Increase in dye leakage amount Inhibition ratio (allergic rhinitis [2]; Test Example 4-2, nasal drops, 2%, 200 μg/rat): 2.9%

CC(=O)[C@@]1(O)CC[C@H]2[C@@H]3C[C@H](C)C4=CC(=O)C=C[C@]4(C)[C@@]3(F)[C@@H](O)C[C@@]21C [Fluorometholone, fluorometholone, reference compound]
Inhibition ratio Increase in tissue weight (allergic conjunctivitis [4]): 59.4% *

CCC(=O)O[C@]1(C(=O)SCF)[C@H](C)C[C@H]2[C@@H]3C[C@H](F)C4=CC(=O)C=C[C@]4(C)[C@@]3(F)[C@@H](O)C[C@@]21C [Fluticasone, fluticasone propinate]
Increase in dye leakage amount Inhibition ratio (allergic rhinitis [2]; Test Example 4-2, nasal drops, 0.051%, 5.1 μg/rat): 106.0% **

CN1CCC(=C2c3ccccc3CC(=O)c3sccc32)CC1 [Ketotifen, ketotifen fumarate]
Dye leakage amount increase Inhibition ratio (allergic rhinitis [1]; 0.0275%, 5.5 μg/rat): 48.6%
Inhibition ratio Increase in tissue weight (allergic conjunctivitis [7]; Test Example 1-2, medicament concentration 0.05%): 13.4%
prophylactic effect on allergic rhinitis (in words) (allergic rhinitis [2]; [8]): had prophylactic effect on allergic rhinitis
Increase in dye leakage amount Inhibition ratio (allergic rhinitis [2]; Test Example 4-2, nasal drops, 0.055%, 5.5 μg/rat): 49.4%

C[C@@H]1CN([C@H]2CC[C@](C#N)(c3ccc(F)cc3)CC2)CC[C@]1(C(=O)O)c1ccccc1 [Levocabastine, levocabastine hydrochloride]
Inhibition ratio Increase in tissue weight (allergic conjunctivitis [7]; Test Example 1-2, medicament concentration 0.025%): 11.1%
Increase in dye leakage amount Inhibition ratio (allergic rhinitis [2]; Test Example 4-2, nasal drops, 0.025%, 2.5 μg/rat): 22.7%
